Results published in PMC10693528, “A high-throughput metabolomics in vitro platform for the characterization of hepatotoxicity” (Cell Biology and Toxicology, 2023).

Assays:
[1] = Cell viability (ATP, CellTiter-Glo) in parallel with metabolomics experiments; conditions: human, Percentage of viability (ATP) compared to the vehicle control, n = 6
Procedure: HepG2 cells (ECACC, UK, maximum passage number 9) were maintained and grown on Dulbecco’s MEM media supplemented with 1% v/v of penicillin/streptomycin, L-glutamine (200 mM, 1% v/v), non-essential amino acids (100x, 1% v/v), and 10% FBS (PAN-Biotech, Aidenbach, Germany) in 75 cm^2 culture flasks (TPP, Switzerland). For cell passaging (~ 80% confluency) media was removed and cells were washed twice with pre-warmed calcium and magnesium free Dulbecco’s PBS (PAN-Biotech, Aidenbach, Germany). Trypsin was used for cell detachment. Then, 20 mL culture medium was added, and single-cell suspensions were obtained by passing the suspension through a Combitip (Eppendorf, Germany). A fraction of the cell suspension was then transferred to a new culture vessel. For experiments, 15,000 cells per well (passage 5-9) were seeded in 96-well flat-bottom plates (TPP, Switzerland) and incubated for 24 h for cell attachment (37 °C and 5% CO^2). Afterwards, culture media were exchanged, test substances applied, and plates incubated for 48 h (37 °C and 5% CO^2).
For each substance, one 96-well plate was set up with 6 replicates per concentration, 12 replicates for vehicle controls (yielding a final concentration of 0.5% DMSO in the well), 6 replicates for positive controls (Bezafibrate 1000 μM), and 6 replicates for blank controls (media without cells). To minimize potential evaporation, the outer rows and columns of the plate were omitted and filled with PBS instead. Reference samples prepared from lyophilized HepG2 cells were measured in parallel throughout the entire analytical process (technical replicates). […] Lyophilized HepG2 cells reference samples were used to account for variability between plates and in concentration series for linearity checks. After 48 h, the assays were stopped by washing the wells once with 100 μL 0.9% NaCl followed by snap freezing the plates on liquid nitrogen for 5 s. Plates were placed immediately on dry ice and 50 μL ice-cooled isopropanol 80% (v/v) were added to quench metabolism and precipitate proteins. Plates were stored at − 80 °C until LC/ MS analysis.

[2] = tested on: HepG2 cells; test: Cytotoxicity (CellTox Green) in parallel with metabolomics experiments; conditions: intermediate concentration (C3; C2 for aroclor), 48 h
Procedure: Commercially available cytotoxicity (CellTox™ Green) and ATP content based (CellTiter-Glo®) assays (Promega GmbH, Walldorf, Germany) were multiplexed in a single 96-well plate following the manufacturer’s instructions. For positive controls, lysis solution 25X was added in wells containing vehicle control treated cells (0.5% DMSO). Then, 10X CellTox Green reagent was added in all wells, plates were shaken for 1 min, and incubated in the dark for 15 min at room temperature. […] Afterwards, wells were washed with PBS, 100 μL of Dulbecco’s MEM media were added to each well and subsequently 100 μL of 1X CellTiter-Glo were added. Plates were shaken for 2 min and incubated in the dark for 8 min at room temperature. Luminescence was measured in the GloMax®-Multi Detection System (Promega) and was normalized to the values of the vehicle control. Cytotoxicity and ATP cell viability analysis were carried out for range finder pre-tests and in parallel with metabolomics experiments in plates handled and treated exactly as the ones used for metabolite profiling.

| Compound | viability at 48 h ([1]; HepG2 cells, C1, C1, 48 h) [%] | viability at 48 h ([1]; HepG2 cells, C2, C2, 48 h) [%] | viability at 48 h ([1]; HepG2 cells, C3, C3, 48 h) [%] | viability at 48 h ([1]; HepG2 cells, C4, C4, 48 h) [%] | viability at 48 h ([1]; HepG2 cells, C5, C5, 48 h) [%] | cytotoxicity (CellTox Green) [2] | viability at 48 h ([1]; C1, C1, 48 h) [%] | viability at 48 h ([1]; C2, C2, 48 h) [%] | viability at 48 h ([1]; C3, C3, 48 h) [%] | viability at 48 h ([1]; C4, C4, 48 h) [%] | viability at 48 h ([1]; C5, C5, 48 h) [%] |
| --- | --- | --- | --- | --- | --- | --- | --- | --- | --- | --- | --- |
| O=C(O)c1cc(Oc2ccc(C(F)(F)F)cc2Cl)ccc1[N+](=O)[O-] [Acifluorfen] | 105 ± 4.2 | 105 ± 4.8 | 99.9 ± 1.3 | 58.4 ± 1.5 | 27.8 ± 1.3 | low cytotoxicity | – | – | – | – | – |
| Cc1cccc(Nc2cc(Cl)nc(SCC(=O)O)n2)c1C [Wy-14643] | 101 ± 3.8 | 97.1 ± 3.1 | 94.6 ± 1.8 | 46.4 ± 2 | 23.2 ± 1.1 | low cytotoxicity | – | – | – | – | – |
| CC(=O)N1CCN(c2ccc(OCC3COC(Cn4ccnc4)(c4ccc(Cl)cc4Cl)O3)cc2)CC1 (centres unmarked) [Ketoconazole] | 102 ± 3.1 | 102 ± 0.9 | 91.2 ± 1.5 | 64.7 ± 1.5 | 28.2 ± 1.9 | – | – | – | – | – | – |
| O=c1cc(-c2ccccc2)oc2ccc3ccccc3c12 [β-naphthoflavone] | 103 ± 4.3 | 114 ± 3.7 | 104 ± 1.6 | 34.5 ± 3.4 | 15 ± 2.1 | low cytotoxicity | – | – | – | – | – |
| CCC(CC)Nc1c([N+](=O)[O-])cc(C)c(C)c1[N+](=O)[O-] [Pendimethalin] | – | – | – | – | – | low cytotoxicity | 98.3 ± 3.9 | 100 ± 2.9 | 82.4 ± 4.9 | 36.1 ± 3.2 | 18.5 ± 3.2 |
